In BindingDB's records for doi:10.1021/np500757w (University of California San Diego, 2015):

Target: Endoplasmic reticulum chaperone BiP (Homo sapiens, UniProt P11021)
Assay: Inhibition of 2-deoxyglucose-induced GRP78 (unknown origin) expression transfected in human HT1080 cells by luciferase reporter gene assay

Chain of Endoplasmic reticulum chaperone BiP (P11021 whole entry): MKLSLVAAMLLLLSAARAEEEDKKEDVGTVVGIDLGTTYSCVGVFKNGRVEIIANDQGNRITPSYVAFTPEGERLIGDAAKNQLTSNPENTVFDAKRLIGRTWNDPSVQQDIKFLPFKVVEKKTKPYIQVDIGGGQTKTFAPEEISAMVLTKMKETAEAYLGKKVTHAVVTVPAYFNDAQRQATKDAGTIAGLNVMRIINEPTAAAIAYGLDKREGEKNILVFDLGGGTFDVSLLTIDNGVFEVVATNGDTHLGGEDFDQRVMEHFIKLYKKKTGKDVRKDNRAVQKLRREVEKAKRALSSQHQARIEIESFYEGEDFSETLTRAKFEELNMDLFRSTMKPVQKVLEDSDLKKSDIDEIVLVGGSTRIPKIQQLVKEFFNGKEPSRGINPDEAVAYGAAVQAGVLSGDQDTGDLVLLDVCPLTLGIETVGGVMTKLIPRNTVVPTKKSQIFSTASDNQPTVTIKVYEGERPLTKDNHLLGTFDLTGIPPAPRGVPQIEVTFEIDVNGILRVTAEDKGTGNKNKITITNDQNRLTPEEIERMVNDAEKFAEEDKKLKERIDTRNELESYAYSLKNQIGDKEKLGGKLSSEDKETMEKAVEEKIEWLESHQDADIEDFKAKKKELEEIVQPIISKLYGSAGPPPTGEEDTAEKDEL

IC50: 300 nM
Compound: CC/C1=C/[C@H](CO)C[C@@H](C)[C@H](O[C@H]2C[C@H](O)[C@H](O[C@@H]3O[C@@H](C)[C@H](O[C@H]4C[C@H](O)[C@H](O)[C@@H](C)O4)[C@@H](OC)[C@H]3O)[C@@H](C)O2)[C@H](C)CCC[C@]2(C)C=C(C)[C@H](C)C[C@]23OC(=O)C(=C3O)C(=O)[C@@]2(CC)[C@H]3[C@H](C=C(C)[C@@H]12)[C@@H](O)CC(=O)[C@@H]3C
